Consider one compound from PMC4193777 (PLoS ONE, 2014).

One experiment has as its system FPR2. The experiment can be described thus: Calcium mobilization in undifferentiated HL-60 cells overexpressing FPR2. Format: cell-based. The conditions noted are these: Fura-2; F2Pal10 10 nM. The source says: The procedures used to obtain stable expression of FPR1 and FPR2 in undifferentiated HL-60 cells have been previously described. To prevent possible auto-differentiation due to the accumulation of differentiation factors in the culture medium, cells were passed twice a week before they reached a density of 2×10^6 cells/ml. At each passage, an aliquot of the cell culture was centrifuged, the supernatant was discarded and the cell pellet was resuspended in fresh RPMI 1640 medium containing FCS (10%), PEST (1%), and G418 (1 mg/ml).
Neutrophils or transfected HL-60 cells at a density of 5×10^7 cells/ml in KRG containing 0.1% BSA were loaded with 5 µM FURA 2-AM for 30 minutes in the dark at room temperature. […] Calcium measurements were carried out in a PerkinElmer fluorescence spectrophotometer (LC50), with excitation wavelengths of 340 nm and 380 nm, an emission wavelength of 509 nm, and slit widths of 5 nm and 10 nm, respectively. The transient rise in intracellular calcium is presented as the ratio of fluorescence intensities (340 nm: 380 nm) detected. […] The relative calcium level was expressed as a ratio between Fluo-3 and Fura Red (FL-1/FL-3) fluorescence over time.
Figure 1 The F2Pal10 pepducin specifically activates FPR2. […] The release of superoxide anions was recorded continuously. […] Abscissa, time of study (sec); ordinate, fluorescence (arbitrary units).
A general note: Calcium flux is commonly read through the fluorescence of an indicator in the cells.

For another experiment, the system named is desensitized FPR2. The experiment can be described thus: PAF-induced cross-talk reactivation of desensitized FPR2 (superoxide). The format is cell-based, human. On the procedure:
Human peripheral blood neutrophils were isolated from buffy coats from healthy blood donors using dextran sedimentation and Ficoll-Paque gradient centrifugation as described. The remaining erythrocytes were disrupted by hypotonic lysis, the neutrophils were washed twice, resuspended in KRG, and stored on melting ice until use. This isolation procedure permits cells to be purified with minimal granule mobilization.
The NADPH-oxidase activity was determined using isoluminol-enhanced chemiluminescence (CL), [27]. The CL activity was measured in a six-channel Biolumat LB 9505 (Berthold Co., Wildbad, Germany), using disposable 4-ml polypropylene tubes with a 900 µl reaction mixture containing 10^5 cells, isoluminol (2×10^−5 M) and HRP (2 U). The tubes were equilibrated in the Biolumat for 5 min at 37°C, after which the stimulus (100 µl) was added and the light emission was recorded continuously. Receptor desensitized cells were defined as naïve (non-desensitized) cells that had first been stimulated with a receptor specific agonist and returned to baseline after the resulting release of superoxide before a second stimulation. When reactivation experiments were performed with antagonists, the antagonists were added to the CL reaction mixture 1 min before the second stimulation. For studies with signaling inhibitors, cells were incubated with inhibitors at 37°C for 15 min before agonist addition. Control cells received no treatment but were incubated under the same conditions.
Figure 3 PAF- or ATP-stimulation induces reactivation of desensitized FPR2. […] A representative experiment is shown and the time point for addition of FPR2 agonists is indicated by the first arrow, the time point for PAF stimulation (100 nM final concentration) with the second arrow. The control PAF response induced in naïve (non-desensitized) neutrophils is shown for comparison (dotted line). Abscissa: Time of study (min); ordinate: Superoxide production (Mcpm). B. Naïve neutrophils were first desensitized with F2Pal10 (F2Pal10des., 500 nM final concentration) and subsequently stimulated with PAF (100 nM final concentration; time point for PAF addition is indicated by an arrow). The FPR2 specific inhibitor PBP10 (1 µM) was added 1 min prior to PAF stimulation (dashed line) and the release of superoxide anions was recorded continuously. The PAF responses induced in naïve cells (solid line), as well as in F2Pal10-desensitized cells receiving no PBP10 (dotted line), are shown for comparison. Abscissa: Time of study (min); ordinate: Superoxide production (Mcpm). C. Effect of calyculin A on receptor cross-talk induced FPR2 reactivation. Cells desensitized with F2Pal10 (F2Pal10des.) were incubated with the phosphatase inhibitor calyculin A (60 nM; solid line) or buffer as control (dashed line) for 10 min at 37°C prior to PAF stimulation (100 nM). The release of superoxide anions was recorded continuously. Abscissa: Time of study (min); ordinate: Superoxide production (Mcpm). […] Abscissa: Time of study (min); ordinate: Superoxide production (Mcpm). […] The results are given as peak values of superoxide production following addition of ATPγS (mean+SEM; n = 3).
Figure 4 More pronounced reactivation was induced by PAF in neutrophils desensitized by the pepducin F2Pal10. […] The results are given as peak values of superoxide production from three separate experiments for the first stimulation with FPR2 agonists (mean+SEM, n = 3). […]

Take `CSCC[C@H](NC(=O)[C@@H](NC(=O)[C@H](CCSC)NC(=O)[C@H](Cc1ccc(O)cc1)NC(=O)[C@H](CCCCN)NC(=O)[C@@H](N)Cc1c[nH]c2ccccc12)C(C)C)C(N)=O` [WKYMVM]: the “intracellular calcium response, FPR2 HL-60 cells” value in the experiment with FPR2 is reported as “time course of the response was very similar”. The “type of agonism, cross-talk reactivation” value with desensitized FPR2 (PAF- and ATP-induced cross-talk reactivation of desensitized FPR2) was “partial agonist”. Also, in the experiment with desensitized FPR2 (desensitizing agent F2Pal10 500 nM or WKYMVM 40 nM, PAF 100 nM), the “priming of PAF response in desensitized neutrophils” value is reported as “primed in their response to PAF”.
